{"source": "paper PMC5717064", "about": "“Alternative substrate-bound conformation of bacterial solute-binding protein involved in the import of mammalian host glycosaminoglycans” (Scientific Reports, 2017)", "key": {"[1]": {"molecular_target": "T1, Smon0121-Smon0122/Smon0120-Smon0120 (Streptobacillus moniliformis, UniProt D1AWD7)", "T1 construct": "gene Smon_0120", "T1 sequence (D1AWD7 entry or part of it)": "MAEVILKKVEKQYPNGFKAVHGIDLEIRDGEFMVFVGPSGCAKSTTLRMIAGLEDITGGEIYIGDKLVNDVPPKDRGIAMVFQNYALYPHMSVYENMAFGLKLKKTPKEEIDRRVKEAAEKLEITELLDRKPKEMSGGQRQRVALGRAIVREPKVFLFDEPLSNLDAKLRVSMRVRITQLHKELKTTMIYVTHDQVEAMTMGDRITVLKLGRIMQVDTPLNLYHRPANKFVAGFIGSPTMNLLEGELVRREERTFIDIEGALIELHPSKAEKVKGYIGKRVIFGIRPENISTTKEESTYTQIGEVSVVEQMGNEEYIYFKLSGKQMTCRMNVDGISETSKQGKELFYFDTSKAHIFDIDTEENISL", "T1 sequence (D1AWD8 entry or part of it, further chain)": "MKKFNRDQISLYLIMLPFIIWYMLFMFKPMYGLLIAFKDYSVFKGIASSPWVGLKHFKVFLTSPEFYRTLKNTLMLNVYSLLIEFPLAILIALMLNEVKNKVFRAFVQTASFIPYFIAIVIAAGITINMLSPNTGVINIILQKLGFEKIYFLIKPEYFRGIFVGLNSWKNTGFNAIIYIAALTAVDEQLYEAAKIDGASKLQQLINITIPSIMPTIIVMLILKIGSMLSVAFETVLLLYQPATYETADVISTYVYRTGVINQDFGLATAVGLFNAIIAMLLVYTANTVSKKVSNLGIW", "T1 sequence (D1AWE0 entry or part of it, further chain)": "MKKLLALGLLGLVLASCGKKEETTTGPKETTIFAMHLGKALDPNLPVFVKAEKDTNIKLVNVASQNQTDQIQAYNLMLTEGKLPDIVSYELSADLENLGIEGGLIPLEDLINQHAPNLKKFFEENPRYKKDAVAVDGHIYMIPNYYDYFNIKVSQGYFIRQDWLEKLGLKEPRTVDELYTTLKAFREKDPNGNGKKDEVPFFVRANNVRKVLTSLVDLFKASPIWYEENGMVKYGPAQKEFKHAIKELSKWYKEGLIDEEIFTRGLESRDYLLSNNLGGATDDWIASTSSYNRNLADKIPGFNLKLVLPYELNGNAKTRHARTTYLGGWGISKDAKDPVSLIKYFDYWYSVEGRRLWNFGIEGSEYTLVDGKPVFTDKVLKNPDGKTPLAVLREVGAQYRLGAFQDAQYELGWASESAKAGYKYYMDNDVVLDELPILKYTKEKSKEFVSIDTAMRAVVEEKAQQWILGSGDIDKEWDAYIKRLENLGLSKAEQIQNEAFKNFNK", "T1 sequence (D1AWD9 entry or part of it, further chain)": "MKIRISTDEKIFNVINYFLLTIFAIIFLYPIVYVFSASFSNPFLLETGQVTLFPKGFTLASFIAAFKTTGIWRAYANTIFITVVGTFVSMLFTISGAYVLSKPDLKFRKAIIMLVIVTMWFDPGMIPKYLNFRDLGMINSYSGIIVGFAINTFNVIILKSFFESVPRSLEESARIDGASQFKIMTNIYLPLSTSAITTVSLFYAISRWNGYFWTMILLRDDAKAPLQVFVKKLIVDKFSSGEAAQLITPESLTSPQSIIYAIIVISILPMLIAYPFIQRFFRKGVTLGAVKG", "conditions": "in presence of Smon0123 and disaccharide ligands"}, "[2]": {"molecular_target": "T2, Smon0123 (N-18/C-5) (Streptobacillus moniliformis, UniProt D1AWE0)", "T2 construct": "gene Smon_0123; N-terminal 18 and C-terminal 5 residues truncated (starts Met1-Lys19), expressed in E. coli, purified by DEAE and Superdex 200", "T2 sequence (D1AWE0 entry or part of it)": "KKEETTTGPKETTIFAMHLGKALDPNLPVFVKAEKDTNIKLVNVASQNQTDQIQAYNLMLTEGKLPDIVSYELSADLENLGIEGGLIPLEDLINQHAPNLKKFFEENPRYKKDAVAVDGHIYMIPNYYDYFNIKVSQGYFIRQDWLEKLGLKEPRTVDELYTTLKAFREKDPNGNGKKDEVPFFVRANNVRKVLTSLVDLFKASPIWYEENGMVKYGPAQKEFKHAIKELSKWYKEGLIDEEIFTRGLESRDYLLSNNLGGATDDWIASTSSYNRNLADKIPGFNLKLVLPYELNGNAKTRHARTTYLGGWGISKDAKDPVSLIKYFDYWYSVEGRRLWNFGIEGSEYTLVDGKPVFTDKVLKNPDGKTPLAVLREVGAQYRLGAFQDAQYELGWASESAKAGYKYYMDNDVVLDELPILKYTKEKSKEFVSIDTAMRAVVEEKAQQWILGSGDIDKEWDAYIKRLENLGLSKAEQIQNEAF", "assay": "X-ray crystallography, […] Å", "format": "binding", "conditions": "pH 7.5; crystallised with CΔ4S6S, CΔ4S found in the cleft (contaminant or desulfation); construct printed only as Smon0123; not deposited"}, "[3]": {"molecular_target": "T3, Smon0123 (full-length) (Streptobacillus moniliformis, UniProt D1AWE0)", "T3 construct": "gene Smon_0123; full-length protein, expressed in E. coli, purified by TALON, Resource Q and Superdex 200; tag not described; about 57 kDa, monomer", "T3 sequence (D1AWE0 entry or part of it)": "as the sequence (D1AWE0 entry or part of it, further chain) above", "assay": "intrinsic tryptophan fluorescence titration", "format": "binding", "conditions": "0.1 μM protein, 0-20 μM ligand, excitation 280 nm"}, "[4]": {"molecular_target": "T2, Smon0123 (N-18/C-5)", "assay": "X-ray crystallography, […] Å", "format": "binding", "conditions": "pH 7.5, 20 °C, calcium bound; cleft between N and C domains"}}}
{"smiles": "Nc1ncnc2c1ncn2[C@@H]1O[C@H](COP(=O)(O)OP(=O)(O)OP(=O)(O)O)[C@@H](O)[C@H]1O", "note": "[ATP]", "values": [{"measurement": "molybdenum blue phosphate release, proteoliposomes", "setting": "[1]", "result": "phosphate ion concentration generated through ATP hydrolysis in the presence of Smon0123 and ligands"}]}
{"smiles": "CC(=O)N[C@H]1C(O)O[C@H](CO)[C@H](OS(=O)(=O)O)[C@@H]1O[C@@H]1OC(C(=O)O)=C[C@H](O)[C@H]1O", "note": "(stereo partly shown) [CΔ4S]", "values": [{"measurement": "X-ray crystallography, 2.50 Å", "setting": "[2]", "result": "the protein was found to interact with C∆4S but not C∆4S6S in the cleft"}]}
{"smiles": "CC(=O)N[C@H]1C(O)O[C@H](COS(=O)(=O)O)[C@H](OS(=O)(=O)O)[C@@H]1O[C@@H]1OC(C(=O)O)=C[C@H](O)[C@H]1O", "note": "(stereo partly shown) [CΔ4S6S]", "values": [{"measurement": "Kd", "setting": "[3]", "result": "3.86 ± 0.243", "unit": "µM"}, {"measurement": "X-ray crystallography, 1.95 Å", "setting": "[4]", "result": "The coordinates and structure factors of Smon0123/CΔ4S6S have been deposited in the Protein Data Bank"}]}
